Where two headings read alike, the source gives them in different places.
What was measured:
[1] = Plasma MEDICA16αα exposure in STZ diabetic rats (LC/MS); type: in vivo; settings: Sprague-Dawley, rat, po, 15 mg/kg, oral 15 mg/kg b.i.d, data not shown
Experimental: Plasma aliquots of 100 μl were vortex-mixed with 50 μl of formic acid:methanol (1:1 v/v) solution containing an internal standard, extracted into n-hexane, centrifuged, and the hexane layer was evaporated to dryness. The residue was reconstituted in the mobile phase and injected into the LC/MS system [Waters Micromass ZQ mass spectrometer (Waters Co.)]. LC/MS conditions were as follows:)(Bridge MS; RP8 column, 3.5 μm, 2.1×100 mm column (Waters Co.); column temperature was 35° C.; isocratic mobile phase, methanol:water (82:18 v/v) containing 0.1% formic acid, at a flow rate of 0.2 ml/min; detector tuned to 500 L/hr nitrogen flow; source temperature; 400° C.; cone voltage 30V; ionization mode ESI+; 365 and 393 m/z for MEDICA16αα and the internal standard, respectively. Calibration curves were linear and validated in the 100 ng/ml to 5000 ng/ml range, with accuracy of 7-9% relative error and precision of 8-10% relative standard deviation.

Soleus GLUT4 = test: Activation of Soleus GLUT4 in STZ diabetic rats; type: in vivo, rat
Experimental: (§1) Administering a combination of Medica16αα and insulin was performed by treating STZ diabetic rats (FBG >300 mg/dl) with oral MEDICA16αα(15 mg/kg b.i.d) for five consecutive days, then MEDICA16αα-responsive rats were further treated with MEDICA16αα(15 mg/kg b.i.d) for 10 additional consecutive days (“STZ/MEDICA Res”), and MEDICA16αα non-responsive rats (FBG >250 mg/dl) were further treated for 10 additional consecutive days with either insulin Neutral Protamine Hagedorn (NPH) (3 u/kg b.i.d subcutaneously) (“STZ/NPH”), or with insulin NPH (3 u/kg b.i.d subcutaneously in combination with oral MEDICA16αα(15 mg/kg b.i.d) (“STZ/MEDICA NPH”).
Muscle tissue was fixed with 4% buffered formaldehyde for 4 hours. Paraffin sections (5 μm) were rehydrated and antigen retrieved in citrate buffer using a Biocare pressure cooker, followed by 5 minutes blocking in peroxidase and 10 minutes of protein block (Cas-Block). The sample was incubated with anti-GLUT4 antibody (AbCam ab65267), followed by polyclonal anti-mouse IgG. DAB substrate buffer was then added to achieve coloration. The specimens were subsequently dehydrated with ethanol, cleared with xylene and then mounted on glass cover slips. Digital images were obtained using Nikon Eclipse TE-2000E microscope equipped with Olympus DP70 camera. Image analysis was carried out using ImageJ software. […]
Protein lysates were prepared in sodium dodecyl sulfate (SDS) sample buffer (62 mM Tris (pH 6.8), 2.3% SDS, […] mercaptoethanol, 10% glycerol), and were subjected to SDS-PAGE, electro-transferred onto cellulose nitrate membranes (Schleicher & Schuell) and probed with the indicated first antibody, followed by HRP-labeled second antibody. Protein concentration was determined by BCA (Thermo Scientific). Bands were detected by ECL, and the intensity of individual bands was determined by densitometry using ImageJ 1.48 v software.

NOD mice = test: Islet insulitis scoring in NOD mice; type: in vivo, mouse; settings: 14-week old pre-diabetic NOD mice
Text: Head of pancreas of NOD mice was sampled, fixed in 4% buffered formalin, embedded in paraffin, and […] sections were stained with hematoxylin/eosin. Insulitis scores 0 to 4 were verified by the percentage of intra-islet mononuclear granulation (“0”, no intra-islet mononuclear cell infiltration; “1”, <25% of islet being infiltrated with mononuclear cell granulation; “2”, 25%-50%; “3”, 50-75%; “4”, >75%), in 30 to 40 islets per pancreas.

[2] = test system: SHAM (control) non-diabetic rats; test: Fasting blood glucose in SHAM (control) non-diabetic rats; type: in vivo, rat; settings: oral 15 mg/kg b.i.d
Experimental: (§2) SHAM (control) rats were injected with 0.1 M of cold citrate buffer (pH 4.5). STZ diabetic or SHAM rats were dosed twice daily by gavage (orally) with 1% CMC (Sigma Aldrich C5678), or with HOOC—C(CH3)2—(CH2)12—C(CH3)2—COOH (2,2,15,15-tetramethylhexadecane-1,16-dioic acid) also termed herein “MEDICA16αα”, “Medica16αα” or M16αα(15 mg/kg body weight) suspended in 1% CMC, or injected intraperitoneal (i.p.) with Neutral Protamine Hagedorn (NPH) insulin (3 u/kg body weight b.i.d), as indicated.
(§3) Tail vein FBG was verified daily by a glucometer (Glucometer®, Accu-Check® Performa, Roche Diagnostics). Urine secretion, food and water consumption were measured in standard metabolic cages (Tecniplast™ Metabolic Cage Systems for Rodents) for 48 hour periods. Samples were collected and recorded every 12 hour.

STZ diabetic rats = test: Anti-diabetic efficacy in streptozotocin (STZ) diabetic rats (FBG, IPGTT, IPITT, fluid balance, insulin/glucagon content); type: in vivo, rat
Experimental: Male Sprague-Dawley (SD) rats weighing 250-275 gr were fed ad libitum (Harlan Teklad 2018), had free access to water, and were kept on a 12:12 h light:dark cycle. Experimental type 1 diabetes (T1D) was induced in overnight fasted rats by a single intra-peritoneal injection of streptozotocin (STZ, 60 mg/kg body weight, Sigma Aldrich) freshly prepared in 0.1 M of cold citrate buffer (pH 4.5), followed by oral 10% glucose solution for the next 24 hours to overcome STZ-induced acute hypoglycemia. STZ diabetic rats (defined as having a fasting blood glucose (FBG) level higher than 300 mg/dl) were selected for further studies.
as §2, §1, §3
Overnight fasted rats were injected i.p (1 gr glucose/kg bw) with 20% dextrose solution (Teva Medical). Tail vein blood was sampled on 0, 30, 60, 90 and 120 minutes following glucose injection.
Fasted rats (5 hours fast) were injected i.p (2 u/kg bw) with HumulinR insulin (Eli Lilly). Tail blood glucose levels were measured by glucometer at 0, 15, 30, 60, and 120 min following insulin injection.
Pancreas and plasma insulin and glucagon content were determined by insulin (Millipore, Cat #RI-13K) and glucagon (Millipore, Cat # GL-32K) radioimmunoassay (RIA) kits. cAMP levels were measured by cAMP kit (Arbor Assays, DetectX Cat # K019-H1).

- concentration at 10 days ([1]; read-out: plasma MEDICA16αα exposure, non-responsive rats): 26 ± 8.7 ng/mL
- concentration at 10 days ([1]; read-out: plasma MEDICA16αα exposure, responsive rats): 22.5 ± 4.4 ng/mL
- hypoglycemia [2]: did not result in hypoglycemia
Compound: CC(C)(CCCCCCCCCCCCC(C)(C)C(=O)O)C(=O)O [MEDICA16αα, 2,2,15,15-tetramethylhexadecane-1,16-dioic acid]
- soleus AKT (phospho-Akt(Ser473)) (Soleus GLUT4): activated
- soleus AMPK (phospho-ACC(Ser79)) (Soleus GLUT4): activated
- soleus phospho-AS160(Thr642) (Soleus GLUT4): increase in phosphorylated AS160(Thr642)
- islet insulitis rankings versus non-treated (NOD mice): essentially similar
- pancreatic and/or plasma insulin and glucagon content (STZ diabetic rats; STZ diabetic rats, stand-alone treatment): not accounted for by significant increase in pancreatic and/or plasma insulin, neither by significant decrease in glucagon content
- fluid consumption and excretion (STZ diabetic rats; STZ/MEDICA Res rats, stand-alone): partial decrease
- blood glucose level in i.p glucose tolerance test (IPGTT) (STZ diabetic rats; STZ/MEDICA Res rats, stand-alone 15 mg/kg b.i.d): amelioration in blood glucose level
- STZ diabetic rats in which FBG was normalized (FBG<250 mg/dL) (STZ diabetic rats; oral 15 mg/kg b.i.d, 10 consecutive days, stand-alone (no insulin), all-or-none response): about 40%
- treated STZ diabetic rats that remained non responsive (FBG >250 mg/dl) (STZ diabetic rats; oral 15 mg/kg b.i.d, stand-alone): 60%

Source: patent US10512624B2, “Long-chain amphipathic dicarboxylic acids for treatment of diabetes type-1” (Syndromex Ltd., priority 2016, dated 2019)
